Results: patent US20100041642A1, “UREA INHIBITORS OF MAP KINASES” (LOCUS PHARMACEUTICALS, INC., priority 2008, published 2010)

These compounds were tested against p38 (Homo sapiens, UniProt Q16539) (assay: Protein Kinase Assay (33P incorporation from γ-[33P]ATP into GST-ATF-2)). Details: 2 nM p38, preincubated 20 min at 30° C.; 10 uM cold ATP, 2 uM GST-ATF2, 70 min; read-out: ACT. (Activity), IC50 category in Protein Kinase Assay.
Assay type: biochemical
How it was run: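 Compounds preincubated 20 min at 30 °C with 2 nM p38; reaction started with 2 uM GST-ATF-2 (aa 19-96) and 10 uM ATP plus γ-[33P]ATP, pH 7.5, 70 min at 30 °C, 2% DMSO. Phosphoric acid stop; 33P-labelled substrate captured on phosphocellulose and counted by scintillation.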

Chain of p38 (Q16539 whole entry): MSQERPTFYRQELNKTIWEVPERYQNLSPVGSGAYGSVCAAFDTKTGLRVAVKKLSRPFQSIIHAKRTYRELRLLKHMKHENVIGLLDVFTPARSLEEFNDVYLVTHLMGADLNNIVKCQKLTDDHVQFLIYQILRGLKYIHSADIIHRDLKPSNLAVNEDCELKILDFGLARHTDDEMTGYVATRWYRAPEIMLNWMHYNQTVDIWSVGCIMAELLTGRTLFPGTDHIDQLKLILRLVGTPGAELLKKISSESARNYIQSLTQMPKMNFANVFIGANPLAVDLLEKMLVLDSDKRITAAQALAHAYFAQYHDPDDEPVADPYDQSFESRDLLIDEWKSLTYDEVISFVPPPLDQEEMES

SMILES | IC50
Cc1ccc(NC(=O)Nc2sc(C(C)(C)C)cc2C(=O)N2CCNC(=O)C2(C)C)cc1-c1ccc(OCCN2CCCCC2)nc1 [1-(5-tert-butyl-3-(2,2-dimethyl-3-oxopiperazine-1-carbonyl)thiophen-2-yl)-3-(4-methyl-3-(6-(2-(piperidin-1-yl)ethoxy)pyridin-3-yl)phenyl)urea] | < 100 nM
Cc1ccc(NC(=O)Nc2sc(C(C)(C)C)cc2C(=O)N2CCNC(=O)C2(C)C)cc1-c1ccc(OCCN2CCOCC2)nc1 [1-(5-tert-butyl-3-(2,2-dimethyl-3-oxopiperazine-1-carbonyl)thiophen-2-yl)-3-(4-methyl-3-(6-(2-morpholinoethoxy)pyridin-3-yl)phenyl)urea] | < 100 nM
Cc1ccc(NC(=O)Nc2sc(C(C)(C)C)cc2C(=O)N2CCNC(=O)C2(C)C)cc1-c1ccc(OCCCN2CCN(C)CC2)nc1 [1-(5-tert-butyl-3-(2,2-dimethyl-3-oxopiperazine-1-carbonyl)thiophen-2-yl)-3-(4-methyl-3-(6-(3-(4-methylpiperazin-1-yl)propoxy)pyridin-3-yl)phenyl)urea] | < 100 nM
Cc1ccc(NC(=O)Nc2sc(C(C)(C)C)cc2C(=O)N2CCNC(=O)C2(C)C)cc1-c1ccc(OCCCc2ccccn2)nc1 [1-(5-tert-butyl-3-(2,2-dimethyl-3-oxopiperazine-1-carbonyl)thiophen-2-yl)-3-(4-methyl-3-(6-(3-(pyridin-2-yl)propoxy)pyridin-3-yl)phenyl)urea] | < 100 nM
Cc1ccc(NC(=O)Nc2sc(C(C)(C)C)cc2C(=O)N2CCNC(=O)C2(C)C)cc1-c1ccc(OCCCN2CCOCC2)nc1 [1-(5-tert-butyl-3-(2,2-dimethyl-3-oxopiperazine-1-carbonyl)thiophen-2-yl)-3-(4-methyl-3-(6-(3-morpholinopropoxy)pyridin-3-yl)phenyl)urea] | < 100 nM
Cc1ccc(NC(=O)Nc2sc(C(C)(C)C)cc2C(=O)N2CCNC(=O)C2(C)C)cc1-c1ccc(N2CCN(C)CC2)nc1 [1-(5-tert-butyl-3-(2,2-dimethyl-3-oxopiperazine-1-carbonyl)thiophen-2-yl)-3-(4-methyl-3-(6-(4-methylpiperazin-1-yl)pyridin-3-yl)phenyl)urea] | < 100 nM
Cc1ccc(NC(=O)Nc2sc(C(C)(C)C)cc2C(=O)N2CCNC(=O)C2(C)C)cc1-c1ccc(CN2CCOCC2)nc1 [1-(5-tert-butyl-3-(2,2-dimethyl-3-oxopiperazine-1-carbonyl)thiophen-2-yl)-3-(4-methyl-3-(6-(morpholinomethyl)pyridin-3-yl)phenyl)urea] | < 100 nM
Cc1ccc(NC(=O)Nc2sc(C(C)(C)C)cc2C(=O)N2CCNC(=O)C2(C)C)cc1-c1ccc(N2CCCCC2)nc1 [1-(5-tert-butyl-3-(2,2-dimethyl-3-oxopiperazine-1-carbonyl)thiophen-2-yl)-3-(4-methyl-3-(6-(piperidin-1-yl)pyridin-3-yl)phenyl)urea] | < 100 nM
Cc1ccc(NC(=O)Nc2sc(C(C)(C)C)cc2C(=O)N2CCNC(=O)C2(C)C)cc1-c1ccc(OC2CCOCC2)nc1 [1-(5-tert-butyl-3-(2,2-dimethyl-3-oxopiperazine-1-carbonyl)thiophen-2-yl)-3-(4-methyl-3-(6-(tetrahydro-2H-pyran-4-yloxy)pyridin-3-yl)phenyl)urea] | < 100 nM
Cc1ccc(-c2cc(NC(=O)Nc3sc(C(C)(C)C)cc3C(=O)N3CCNC(=O)C3(C)C)ccc2C)nn1 [1-(5-tert-butyl-3-(2,2-dimethyl-3-oxopiperazine-1-carbonyl)thiophen-2-yl)-3-(4-methyl-3-(6-methylpyridazin-3-yl)phenyl)urea] | < 100 nM
Cc1ccc(NC(=O)Nc2sc(C(C)(C)C)cc2C(=O)N2CCNC(=O)C2(C)C)cc1-c1ccc(N2CCOCC2)nc1 [1-(5-tert-butyl-3-(2,2-dimethyl-3-oxopiperazine-1-carbonyl)thiophen-2-yl)-3-(4-methyl-3-(6-morpholinopyridin-3-yl)phenyl)urea] | < 100 nM
